Series [1] has as its system EMT6 cells. Type of series: cell-based, mouse.
For series [2], the system named is cancer cells. Type of series: cell-based.
For series [3], the system named is cancer cells. Type of series: cell-based. This is another data set of the same source.
The conditions of series [4]: mouse, in vivo.
The subject of series [5] is CT-2A, K1580 glioblastoma cells. Format: cell-based, mouse.
Series [6] relates to EMT6 mammary carcinoma. The following applies: mouse, in vivo.
For series [7], the system named is TNFα. The following applies: mouse, in vivo, ip.
Series [8] deals with TNFα. The following applies: mouse, in vivo, ip. This is another data set of the same source.
The test system of series [9] is CT-2A intracranial tumors. The following applies: mouse, in vivo.
Series [10] concerns CT-26 mouse colon carcinoma. As to conditions: in vivo.
Series [11] relates to 786-0 cells. Type of series: cell-based.
The test system of series [12] is Jak/Stat signalling downstream of IFNβ. Format: cell-based.
In series [13] the test system is interferon stimulated gene (ISG) expression. Type of series: cell-based. As to conditions: cells treated with VSVΔ51 and SMC, 20 hours.
Series [14] relates to IFNβ. Type of series: cell-based.
Series [15] has as its system VSVΔ51. The following applies: mouse, 50 mg/kg.
For series [16], the system named is SNB75 cells. Nature of the series: cells. As to conditions: Homo sapiens, SNB-75, read-out: EC50 of SMC therapy. Type of series: cell-based.
Series [17] relates to cIAP1/2. Description: cIAP1/2 knockdown in EMT6 tumors (western blotting). As to conditions: 50 mg/kg oral gavage. Type of series: in vivo, mouse.
For series [18] the following is noted: mouse, in vivo. The source holds these as a separate data set.
The test system of series [19] is TNFα. Format: cell-based, mouse.
The subject of series [20] is VSVΔ51. Format: cell-based.
In series [21] the test system is cancer cell lines (n=28). Type of series: cell-based.
In series [22] the test system is TRAIL and TNFα. Format: cell-based, human.

“Also recorded” adds a separate entry of the source.

As to `CC(C)Cn1cnc2c(N)nc3ccccc3c21` [imiquimod], the “bystander death of SMC treated EMT6 cells” value in series [1] is “required splenocytes”.
Regarding IFNγ, in [2], the “synergy with SMC recapitulated by recombinant cytokine” value is on record as “recapitulated”.
SM-164: the “synergy with VSVΔ51 to cause cancer cell death” value in series [3] is reported as “synergize”.
On to poly(I:C), for which, in series [4], the “toxicity of direct intracranial administration” value is listed as “without overt toxicities”. In addition, in [5], the “glioblastoma cell death by brain lysates of treated mice in the presence of SMCs” value is recorded as “enhanced cell death in the presence of SMCs”. The tumor growth entry in series [6] was “no bearing on tumor growth”. In series [7], the TNFα in serum result was “robust expression of TNFα”. In addition, in [8], the “TNFα levels from the brain” value was “marked up-regulation of TNFα levels”. In [1], the “bystander death of SMC treated EMT6 cells” value is on record as “led to EMT6 cell death directly”.
Take IFNα: the “tumor growth and survival” value in [6] is “no effect on EMT6 tumor growth or overall survival”. Moreover, the neurotoxicity result in series [9] was “did not result in any overt neurotoxicity”. Besides, the “synergy with SMC recapitulated by recombinant cytokine” value in [2] is given as “recapitulated”.
Regarding `CN[C@@H](C)C(=O)N[C@H](C(=O)N1CCC[C@H]1c1nc(C(=O)c2ccc(F)cc2)cs1)C1CCCCC1` [LCL161], in series [10], the “tumor growth rate and survival” value was “modest decrease of the tumor growth rate and a slight extension of survival”. In addition, in series [11], the “cell death outside of the zone of virus infection” value is “dramatic cell death”. In [12], the “activation of Jak/Stat signalling downstream of IFNβ” value is recorded as “do not alter”. Moreover, the “ISG gene expression in response to oncolytic VSV infection” value in [13] is on record as “no bearing”. Further, the IFNβ secretion entry in [14] is given as “slightly lower levels”. In series [6], the cure rate is reported as 17%; the “tumor growth and survival” value was “decrease in the rate of tumor growth and a modest extension in survival; also recorded: slightly extended mouse survival”; the “tumor growth rates and survival” value was “slightly delayed EMT6 tumor growth rates and slightly extended the survival”. The “viral replication and spread in vivo” value in series [15] is listed as “No differences in viral kinetics”. For the same compound, in [3], the “synergy with VSVΔ51 to cause cancer cell death” value was “synergize”. Also, in series [16], the EC50 – broadly, the concentration that produces a half-maximal response – was more than 2500 nM. For the same compound, the neurotoxicity entry in series [9] is on record as “did not result in any overt neurotoxicity”. In addition, in series [17], the “duration of cIAP1/2 knockdown in tumors” value was “at least 24 hrs” and the “duration of cIAP1/2 knockdown in tumors, in some cases” value lay in the range of 48 to 72 h. Besides, in series [18], the tolerability result is recorded as “well tolerated”. The weight loss result in series [18] (po, 50 mg/kg) is reported as “minimal transient weight loss”. In addition, the “cellular production of TNFα upon VSV infection” value in series [19] is listed as 5- to 7 fold percentage increase. In addition, in series [20], the “VSVΔ51 infectivity in or spread through tumor cells” value is on record as “does not alter” and the “growth kinetics of VSVΔ51” value was “does not affect the growth kinetics”. Further, in [21], the “cancer cell lines in which SMC treatment enhanced sensitivity to VSVΔ51” value was 54% and the “enhanced sensitivity: EC50 of VSVΔ51 upon SMC treatment” value is 10-10,000 fold. Also, the “induction of TRAIL and TNFα by IFNβ” value in [22] was “potentiated”.

For the origin of these results see patent US10441654B2 (priority 2014, dated 2019).
